Consider one compound from article PMC9572546, “Discovery of Novel c-Jun N-Terminal Kinase 1 Inhibitors from Natural Products: Integrating Artificial Intelligence with Structure-Based Virtual Screening and Biological Evaluation” (Molecules, 2022).

pIC50: −log10 of the molar value.

The target in this test is T1, c-Jun N-terminal kinase 1 (JNK1) (Homo sapiens, UniProt P45983).
T1 construct: gene MAPK8
The test is described as follows: LANCE Ultra TR-FRET kinase assay (PerkinElmer), 10-point two-fold dilution. Format: biochemical.

T1 sequence (P45983 whole entry): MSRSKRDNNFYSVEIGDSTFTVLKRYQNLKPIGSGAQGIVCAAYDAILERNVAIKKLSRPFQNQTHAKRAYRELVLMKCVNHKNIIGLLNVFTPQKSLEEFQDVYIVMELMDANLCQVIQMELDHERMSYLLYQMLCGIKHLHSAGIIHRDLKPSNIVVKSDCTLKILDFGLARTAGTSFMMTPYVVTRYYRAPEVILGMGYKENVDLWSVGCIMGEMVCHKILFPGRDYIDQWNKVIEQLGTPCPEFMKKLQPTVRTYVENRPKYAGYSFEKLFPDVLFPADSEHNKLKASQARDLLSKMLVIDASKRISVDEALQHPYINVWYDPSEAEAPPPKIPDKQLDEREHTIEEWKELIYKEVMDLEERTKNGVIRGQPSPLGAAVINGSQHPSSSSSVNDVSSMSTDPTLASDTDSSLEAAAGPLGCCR

`COc1cc(-c2cc(=O)c3c(O)cc(O)cc3o2)cc(OC)c1O` [Tricin] gave a pIC50 of 4.75.
